# “Also recorded” adds a separate entry of the source.
# What was measured:
# Assay type in all cases: in vivo, human
# [1] = tested on: volunteers with Atopic dermatitis; assay: Atopic dermatitis trial: study director's evaluation of skin condition
# Description: In Examples 1-3 an emulsion type O/W Creams of MWL-001 (2.5% and 5% w/w) was prepared using Emulgade® SE emulsifiers (glyceryl stearate), Ceteareth-20, cetearyl alcohol, cetyl palmitate, cetearyl alcohol-Lanette®, isopropyl myristate, caprilic/capric acid triglycerides (Myritol®318), strearic acid, a Trietanolamine and purified water, according to Ph Eur 6.0.
# (§1) Ten volunteers aged 2-30 years participated in the trial. Four females and six males.
# (§2) Volunteers were instructed to apply the product only on one side of the body, on the worst affected area, while the other side was defined as the control area and was not treated. The tested material, a body lotion product, was applied 1-3 times a day for a period of 4 weeks.
# Each volunteer was examined at baseline (T0), after one week (T1) and after 2 weeks of using the product (T2). The investigator rated the condition of the skin according to the parameters of the size of the affected area, dryness, scale, redness, edema, lichenification and pruritus. Both the treated and the Control areas were documented with color photographs at T0, T1 and T2.
# The following parameters were evaluated: • a. Lesion area • b. Dryness • c. Scales • d. Redness • e. Edema • f. Lichenificalion
# The parameters mentioned above were evaluated on a scale of 0 to 5 by the study director. • 0=None • 1=Slight • 2=Moderate • 3=Severe • 4=Extreme • 5=Very Extreme
# (§3) A statistical comparison between T0 and the other two time-points (T1 and T2) and between the treated and the Control areas were made according to the Wilcoxon signed-ranks test, while p<0.05 indicated a significant difference
# All parameters were assessed in a scale of 0-5 where 0=none and 5=very extreme. The percentage of change was calculated at T1 and T2.
# [2] = tested on: volunteers with Atopic dermatitis; assay: Atopic dermatitis trial: hydration level by Corneometer; settings: for Change in hydration level / Hydration level: treated area; for Hydration level: Corneometer
# Description: as §1, §2
# Hydration level was evaluated by Comeometer CM 825, Courage & Khazaka, CK. The probe of the Corneometer was placed on the skin at a constant pressure and measurements of skin hydration were taken. Skin hydration was recorded at baseline, after 1 week and after 2 weeks of treatment. Room temperature and humidity were kept constant.
# as §3
# [3] = tested on: volunteers with Atopic dermatitis; assay: Atopic dermatitis trial: transepidermal water loss (TEWL) by Tewameter; settings: treated area
# Description: as §1, §2
# Transepidermal water loss (TEWL) was measured by Tewameter 300 TM, Courage & Khazaka, CK. TEWL was recorded at baseline and after one week and after two weeks of treatment. Room temperature and humidity were kept constant.
# as §3
# [4] = tested on: volunteers with Atopic dermatitis; assay: Atopic dermatitis trial: erythema level by Mexameter; settings: for Change in erythema level / Erythema level: treated area; for Erythema level: Mexameter
# Description: as §1, §2
# Erythema level was evaluated by Mexameter, Courage & Khazaka, CK. The probe of the Mexameter was placed on the skin at a constant pressure and measurements of skin hydration were taken. Skin erythema level was recorded at baseline, after 1 week and after 2 weeks of treatment.
# as §3
# [5] = tested on: volunteers with Atopic dermatitis; assay: Atopic dermatitis trial: side effects; settings: topical product use
# Description: The participants were asked to keep a record of the daily applications in a diary and to note any side effects resulting from the product application.
# In addition to keeping records of side effects, volunteers were asked to immediately report any side effects, such as dryness, burning sensation, peeling of the skin, redness, etc. to 1SR.
# [6] = tested on: volunteers with psoriasis; assay: Psoriasis trial: side effects; settings: topical use for 4 weeks
# Description: The participants were asked to keep a record of daily applications and to note any side effects resulting from product application.
# Volunteers were asked to keep a record and report any side effects, such as dryness, burning sensation, peeling of the skin, redness or any other visible changes, and report immediately to study director.
# [7] = tested on: healthy female volunteers, facial skin; assay: Anti wrinkle test: hydration level by Corneometer; settings: face, treated area
# Description: (§4) Ten healthy female volunteers were included and completed the study.
# Moisture level of the skin (corneometry) and TEWL (Trans Epidermal Water Loss) were measured at each time point.
# (§5) A cosmetic anti wrinkle product MW-001 was applied on half of the face for four weeks by each volunteer while the other half served as a control, without any product application during the whole test period.
# Hydration level was evaluated by Corneometer, Courage & Khazaka, CK. The probe of the corneometer was placed on the skin at a constant pressure and measurements of skin hydration were taken. Skin hydration was recorded at T0, T1 and T2. Each measurement was repeated three times, and the average of the repeated measurements was calculated and assembled in the test results. The room temperature and humidity were kept constant.
# The corneometry results are provided in arbitrary units.
# [8] = tested on: healthy female volunteers, facial wrinkles; assay: Anti wrinkle test: volunteers' subjective assessment of wrinkles; settings: treated side, scale 0-10
# Description: as §4
# A subjective assessment of facial wrinkles condition was performed by the volunteers at each time point.
# as §5
# The volunteers filled out a questionnaire after 2 and 4 weeks of application.
# The volunteers were asked to answer a questionnaire after four weeks of application, regarding the assessment of each of the tested products, and to evaluate the improvement of the skin beneath and at the side of the eye.
# [9] = after 2 weeks of treatment, both sides
# [10] = treated area, T0 baseline, scale 0-5
# [11] = treated area, T1 after one week, scale 0-5
# [12] = treated area, T2 after two weeks, scale 0-5
# [13] = treated area, after 1 week of treatment
smiles,measurement,setting,value
CCC=CCC=CCC=CCC=CCC=CCC=CCCC(=O)N1CC(O)CC1C(=O)O (stereo in doubt) [MW-001],"Scale level, statistical analysis of change","[1]; after 1 and 2 weeks of treatment, only at the treated area",decreased significantly
same,"Dryness level, statistical analysis of change",[1]; [9],decreased significantly
same,"Redness level, statistical analysis of change",[1]; [9],decreased significantly
same,"Lichenification level, statistical analysis of change","[1]; after 2 weeks of treatment, only at the treated area",decreased significantly
same,Overall efficacy conclusion,[1]; atopic dermatitis,very efficient in the treatment of atopic dermatitis
same,Dryness level,[1]; [10],4.1
same,Lichenification level,[1]; [10],2.8
same,Redness level,[1]; [10],3.9
same,Scale level,[1]; [10],2.6
same,Infected area size,"[1]; treated area, T0 baseline, scale 0-5, 10 volunteers",4.3
same,Dryness level,[1]; [11],1.8
same,Infected area size,[1]; [11],3.2
same,Lichenification level,[1]; [11],2.0
same,Redness level,[1]; [11],2.4
same,Scale level,[1]; [11],1.3
same,Dryness level,[1]; [12],1.1
same,Infected area size,[1]; [12],2.2
same,Lichenification level,[1]; [12],1.3
same,Redness level,[1]; [12],2.3
same,Scale level,[1]; [12],0.9
same,"Dryness level, statistical analysis of change",[1]; [13],decreased significantly
same,"Redness level, statistical analysis of change",[1]; [13],decreased significantly
same,"Infected area size, statistical analysis of change","[1]; treated area, after 2 weeks of treatment, p<0.05, Wilcoxon",diminished significantly
same,"Hydration level, statistical analysis of change",[2]; any of the sides,no significant change
same,Change in hydration level,[2]; Baseline,100%
same,Hydration level,[2]; T0 baseline,21.1
same,Hydration level,[2]; T1 after one week,30.7
same,Hydration level,[2]; T2 after two weeks,27.8
same,Change in hydration level,"[2]; Week 1, relative to baseline",146%
same,Change in hydration level,"[2]; Week 2, relative to baseline",132%
same,Change in TEWL level,[3]; Baseline,100%
same,TEWL level,[3]; T0 baseline,13.6 g/m2/h
same,TEWL level,[3]; T1 after one week,12.5 g/m2/h
same,TEWL level,[3]; T2 after two weeks,10.5 g/m2/h
same,Change in TEWL level,"[3]; Week 1, relative to baseline",92%
same,Change in TEWL level,"[3]; Week 2, relative to baseline",78%
same,Change in erythema level,[4]; Baseline,100%
same,Erythema level,[4]; T0 baseline,620.5
same,Erythema level,[4]; T1 after one week,562.7
same,Erythema level,[4]; T2 after two weeks,600.2
same,Change in erythema level,"[4]; Week 1, relative to baseline",91%
same,Change in erythema level,"[4]; Week 2, relative to baseline",97%
same,"Erythema level, statistical analysis of change","[4]; treated side, after 1 week of treatment",decreased significantly
same,"Erythema level, statistical analysis versus baseline","[4]; treated side, after the increase following week 1",not significantly different
same,Side effects / safety,[5],None of the participants had side effects; also recorded: safe for use
same,Side effects / safety,[6],No side effects were observed; also recorded: safe for use
same,Average hydration level,[7]; T0 baseline,60.9 arbitrary units
same,Average hydration level,[7]; T1 after 2 weeks of use,53.4 arbitrary units
same,Average hydration level,[7]; T2 after 4 weeks of use,53.5 arbitrary units
same,Volunteers' grading of improvement of wrinkle appearance,[8]; after 2 weeks of treatment,3.5
same,Volunteers' grading of wrinkle improvement around the eyes,[8]; after 2 weeks of treatment,3.5
same,Volunteers' grading of wrinkle improvement around the eyes,[8]; after 4 weeks of treatment,4.3
same,Volunteers' grading of improvement in wrinkles appearance,[8]; printed 'After 2 weeks of treatment' (second statement),4.6

# Reference: patent US20160113904A1, “SKIN CARE PRODUCTS COMPRISING SUBSTITUTED HYDROXYPROLINE WITH UNSATURATED FATTY ACIDS DERIVATIVES” (MEDWELL LABORATORIES LTD., priority 2013, published 2016)
